In the case of `O=Cc1ccc(OCC=Cc2ccccc2)cc1`, the melting point is 89.5 to 90.5 °C.

In the case of `CC(=O)[NH+]([O-])C[C@@H]1CN(c2cc(F)c(N3CCN(C(=O)CO)CC3)c(F)c2)C(=O)O1` (some centres undefined), the melting point lay within 100 to 105 °C.

As for `O=C(Oc1cc(F)ccc1Br)c1cc2cc(CCl)ccc2oc1=O`, the melting point was in the range of 203 to 205 °C.

Regarding `CCOC(=O)c1[nH]c2ccc(C)cc2c(=O)c1C`, the melting point is 190 to 193 °C.

The compound `Cc1nc2n(c1CO)-c1ccccc1N(C)c1ccccc1-2` gave a melting point of 187 to 190 °C.

For `Clc1cnc2c(COCn3cncn3)c(Cl)ccc2c1`, the melting point lay within 156 to 158 °C.

In turn, `CCC(=O)CSc1cc(C(C)(C)C)c(O)c(C(C)(C)C)c1` gave a melting point of 55 to 57 °C.

Compound `Cc1ccc(S(=O)(=O)n2ccc3c(Cl)ncnc32)cc1` yielded a melting point of 143 °C.

In turn, `NC(Cc1nc2ccccc2nc1CP(=O)(O)O)C(=O)O` (centres undefined) came in with a melting point of 174 °C.

`Cc1cc(N)nc(CCc2nc3cc(-c4ccc(S(=O)(=O)N5CCN(C)CC5)cc4)cnc3[nH]2)c1` showed a melting point of 135 °C.

With `CC[C@H]1CN(c2ccc(-c3ccnc(Nc4cc(OC)c(OC)c(OC)c4)n3)cn2)CCN1`, the melting point lay in the range of 82 to 83 °C.

With `CN(C/C=C/C#CC(C)(C)C)Cc1cccc(N(C)Cc2ccccc2)c1`, the melting point is 62 to 63 °C.

`COc1c(Br)ccc2oc(C=O)c(C)c12` came in with a melting point of 81 to 82 °C.

As for `Cc1c(-c2ccccc2)c(OCc2ncnn2C)nn2c(-c3ccccc3)nnc12`, the melting point was determined as 195 °C.

The compound `O=C(O)CN(CCCCC(C(=O)O)N(CC(=O)O)CC(=O)O)CC(=O)O` (centres undefined) displayed a melting point of 216 to 220 °C.

Compound `CCCCCCCCCCCCCCCCCCOc1cn(Cc2ccccc2)c(CO)cc1=O` gave a melting point of 120 to 121 °C.

With `COC(=O)c1cc(OCc2c(C)cccc2C)c2nc(C)n(C)c2c1`, the melting point lay in the range of 165 to 169 °C.

`Cn1c(-c2c(F)cccc2F)nn(-c2ccccc2C(F)(F)F)c1=O` came in with a melting point of 98 to 99 °C.

With `CCCCSc1cc2nc3ccccc3sc-2cc1=O`, the melting point is 133 °C.

For `Cn1c(Cl)cnc1C#N`, the melting point fell in the range of 87 to 89 °C.

The compound `COc1ncccc1Nc1c(NC(NC(=O)c2cc(F)cc(F)c2)C(C)(C)C)c(=O)c1=O` (centres undefined) returned a melting point of 221 to 223 °C.

For the compound `CC(C)NS(=O)(=O)c1cc(-c2ncnc(C(F)F)c2Cl)c(F)cc1Cl`, the melting point fell in the range of 172 to 175 °C.

`COc1cccc(-n2c(-c3cc(-c4ccccc4)c(N4CCOCC4)s3)nc3ccccc3c2=O)c1` returned a melting point of 269 to 272 °C.

In the case of `O=C(Nc1ccc(Cl)c(C(F)(F)F)c1)N1NC(c2ccccc2)C(c2ccccc2)C1=O` (centres undefined), the melting point fell in the range of 72 to 74 °C.

`COc1ccc(S(=O)(=O)N2CCc3cccc(-c4ccc(F)cc4)c32)cc1` came in with a melting point of 178 to 179 °C.

Regarding `O=C1NCc2c1cc1ccc3c(c1c2-c1ccc2c(c1)OCO2)OCC3`, the melting point was 275 to 277 °C.

`Cc1ccc(S(=O)(=O)NOC(C)C)cc1` displayed a melting point of 104 °C.

`Nc1nc(N)nc(C23CC4CC(CC(C4)C2)C3)n1` showed a melting point of 261 to 262 °C.

In turn, `CCCCCN(CCC12CC3CC(CC(C3)C1)C2)C(=O)NCC(Cc1ccncc1)Cc1ccncc1` gave a melting point of 124 to 136 °C.

For the compound `CCOC(=O)CSc1nc(Cl)cc(-c2ccccc2)n1`, the melting point fell in the range of 82 to 84 °C.

In turn, `O=C1C(CCO)Oc2ccccc2N1Cc1ccccc1` (centres undefined) showed a melting point of 83 to 85.5 °C.

On to `CS(=O)(=O)O[C@H](COC(=O)CCl)[C@H](NC(=O)OCc1ccccc1)C(N)=O`, for which the melting point was 140 to 142 °C.

Compound `O=C1C=C(c2ccc(OC(F)(F)F)cc2)CO1` returned a melting point of 122 to 123 °C.

In turn, `Nc1ccc2ccccc2c1[N+](=O)[O-]` showed a melting point of 123 to 125 °C.

The compound `CCOC(=O)CS(=O)CCNC(=O)OCC` (centres undefined) gave a melting point of 73.8 to 77 °C.

`O=C1NC(=O)C(c2ccc(-c3ccccc3)cc2)(N2CCN(c3ccc(N4C(=O)CCC4=O)cc3)CC2)C(=O)N1` had a melting point of 310 to 311 °C.

The compound `CC(C)Oc1nsc(N)c1C#N` registered a melting point of 146 to 148 °C.

For `CCNC(=O)c1cc([N+](=O)[O-])ccc1Oc1cncc(Cl)c1`, the melting point lay in the range of 165 to 167 °C.

Compound `CC1CCc2ncc(C#N)c(=O)n21` (centres undefined) yielded a melting point of 148 °C.

As to `N#Cc1ccc(C2CCN(Cc3ccccc3)C2)cc1` (centres undefined), the melting point lay in the range of 78 to 79 °C.

In the case of `CC12CCC3c4ccc(C(=O)O)cc4CCC3C1CCC2C(=O)c1cccnc1` (centres undefined), the melting point was 189 to 192 °C.

`O=C1OC(c2ccc(Cl)cc2)C(Cn2cncn2)(c2ccc(Cl)cc2Cl)O1` (centres undefined): the melting point fell in the range of 178 to 179 °C.

For `CCCCCCCCCCCC#Cc1ccoc1C=O`, the melting point was in the range of 56 to 57 °C.

As for `NC1=NS(=O)(=O)Nc2cccc(OC3CCCCC3)c21`, the melting point was in the range of 215 to 216 °C.

Compound `COc1ccc2c(c1)C[C@@H](C(N)=O)CC2` came in with a melting point of 159 to 161 °C.

Regarding `Clc1ccc2c(c1)Cc1ccc(-c3nnn[nH]3)cc1S2`, the melting point was 257 °C.

The compound `CCCCc1nc(C(C)(C)O)c(C(=O)OCOC(=O)C(C)(C)C)n1Cc1ccc(-c2ccccc2C(=O)O)cc1` displayed a melting point of 139 to 144 °C.

`N#CC(=Cc1ccc(O)c(O)c1)C(=O)Nc1ccc(Br)cc1` came in with a melting point of 277 to 278 °C.

In the case of `O=C(CCCN1C(=O)c2ccccc2C1=O)N1CCC(C2c3ncc(Br)cc3CCc3cc(Cl)cc(Br)c32)CC1` (single isomer, unassigned; (+)), the melting point was in the range of 100 to 102 °C.

For `O=C1NC(=O)c2c1c(-c1ccccc1)cc1c2c2cc(O)ccc2n1CCCN1CCOCC1`, the melting point lay in the range of 252 to 255 °C.

In turn, `O=C1CCCCC1=CC(=O)c1ccccc1` had a melting point of 75 to 77 °C.

In turn, `O=C(OCC(F)(F)C(F)C(F)(F)F)C(F)CF` (centres undefined) gave a melting point of 84 to 86 °C.

Regarding `Nc1cc(Cl)nc(OCc2cccc3ccccc23)n1`, the melting point lay within 160 to 161 °C.

Compound `COc1nc2ccccc2n(-c2ccc(Cl)cc2)c1=O` had a melting point of 245 to 247 °C.

`O=C1C(O)=C(CC2CCCC(C(F)(F)F)C2)C(=O)c2ccccc21` (centres undefined) came in with a melting point of 142 °C.

Compound `Cn1ncc2c1-c1c(Oc3ccc4c(c3)OCO4)sc(C(=O)NCc3ccncc3)c1CC2` showed a melting point of 202 to 204 °C.

Compound `CN1CCN(c2cccc(N)c2)C(=O)C1` yielded a melting point of 139 to 140 °C.

`CN(Cc1cccc2c1CN(C1CCC(=O)NC1=O)C2=O)C(=O)Nc1cc(F)cc(F)c1` (centres undefined) gave a melting point of 228 to 230 °C.

`O=c1[nH]c(NCCCOc2cccc(CN3CCCCC3)c2)ncc1CCCc1ccccc1` gave a melting point of 104 to 108 °C.

With `CCCC(=O)c1cc2c(=O)n(NS(C)(=O)=O)c(=O)[nH]c2cc1C(F)(F)F`, the melting point fell in the range of 236 to 239 °C.

On to `COCCNC(=O)c1cccc(-c2cccc3c(C)c(Cc4cc(F)cc(Cl)c4)sc23)c1`, for which the melting point lay in the range of 132 to 133 °C.

In turn, `CCCc1nc(SC(F)F)c(C(=O)O)n1Cc1ccc(-c2ccccc2S(=O)(=O)NC(=O)NCCCc2ccccc2)cc1` showed a melting point of 108 °C.

In turn, `COc1ccc(-c2ccc(C(=O)Nc3ccc4cc(CN5CCCC5)cnc4c3C)cc2F)cc1` showed a melting point of 174 to 176 °C.

Compound `O=C(O)C1=Cc2cc(O)ccc2S(=O)(=O)CC1` gave a melting point of 260 to 265 °C.

Compound `CCC(OC(=O)CCNC(=O)OC(C)(C)C)c1cc2n(c(=O)c1C)Cc1cc3ccccc3nc1-2` (centres undefined) gave a melting point of 155 to 158 °C.

`COc1ccc(P(c2cc(C)cc(C(C)(C)C)c2O)c2cc(C)cc(C(C)(C)C)c2O)cc1` had a melting point of 122 to 124 °C.

`O=c1cc(COC2CCCCO2)occ1OCc1ccc(CBr)cc1` (centres undefined) came in with a melting point of 83.5 °C.

For the compound `CS(=O)(=O)Nc1ccc2ncn3c(=O)c(C(=O)O)cnc3c2c1`, the melting point was in the range of 319 to 322 °C.

Compound `Cc1nc(Cc2ccc(NC(=O)/C=C/c3cnn(C)c3-c3ccc(F)cc3)cc2)cs1` returned a melting point of 192 to 193 °C.

As to `CC(=O)Nc1cc(C)c(N)c(C)c1`, the melting point worked out at 148 °C.

In turn, `COC(C)C#Cc1ncn2c1CN(C)C(=O)c1c(Cl)cccc1-2` (centres undefined) displayed a melting point of 139 to 141 °C.

Consider `CCOC(=O)c1cn(C2CC2)c2cc(C3=CCN(C(C)=O)CC3)c(F)cc2c1=O`, for which the melting point lay within 190 to 192 °C.

Turning to `CCOC(=O)c1nc(-c2ccc(F)cc2)c(CCCl)s1`, the melting point is 81.5 to 82.5 °C.

In turn, `CN1C(=O)C(C(=O)Nc2ccccc2)c2cc3ccccc3cc2S1(=O)=O` (centres undefined) registered a melting point of 188 to 190 °C.

`COc1cc(OC)nc(-n2cnc(N)n2)n1`: the melting point worked out at 219 °C.

With `O=C1CCC(=O)N1CCSc1ccc(O)cc1`, the melting point lay in the range of 114 to 122 °C.

Compound `O=C(O)CCCCCOC(c1ccccc1)(c1ccccc1)c1ccccc1` gave a melting point of 114 to 116 °C.

For `CC(=O)C1(Nc2ccccc2)CCN(CCc2ccccc2)CC1`, the melting point is 101 °C.

`COc1nc2c(OCc3ccccc3)cccc2n1C` came in with a melting point of 98 to 102 °C.

In the case of `COc1cc2c(cc1OC)-c1c(O)c(OC)cc3c1C(C2)CN(C(=O)C(F)(F)F)C3` (centres undefined), the melting point is 210 to 217 °C.

Compound `NC(C(=O)O)c1ccc(C=CC2CC2)[nH]1` (centres undefined) came in with a melting point of 275 °C.

On to `CONC(=O)c1cc(-c2ccc(-c3ccco3)cc2)n(-c2ccc(S(C)(=O)=O)c(F)c2)n1`, for which the melting point was in the range of 126 to 128 °C.

In the case of `CC(CO)N1c2ccccc2Sc2ccc(C#N)cc21` (racemic), the melting point was found to be 123 °C.

`COCOc1c(-c2cccc(C=CC(=O)O)c2)ccc2c1C(C)(C)CCC2(C)C` yielded a melting point of 188 to 189 °C.

Consider `CS(=O)(=O)N(c1ccc([N+](=O)[O-])cn1)S(C)(=O)=O`, for which the melting point was 175 to 177 °C.

With `O=[N+]([O-])c1ccc(C=C/C=C/c2ccc(Cl)c(Cl)c2)cc1`, the melting point lay within 125 to 135 °C.

`CCCN1CCCC1Cc1cccc(NC(N)=O)c1` (centres undefined): the melting point lay in the range of 101 to 104 °C.

In turn, `C(=Cc1ccc2c(c1)Sc1ccccc1N2c1ccccc1)c1ccc(-c2ccc(C=Cc3ccc4c(c3)Sc3ccccc3N4c3ccccc3)cc2)cc1` registered a melting point of 278 to 290 °C.

In turn, `CC1CCC2(C(=O)O)CCC3(C)C(=CCC4C5(C)CC(O)C(O)C(C)(C)C5CCC43C)C2C1C` (centres undefined) displayed a melting point of 242 to 244 °C.

One may read the melting point as the temperature, or range, at which the solid turns liquid.
